# From ChEMBL document CHEMBL1129721, “Application of the Heck reaction in the synthesis of truncated naphthoic acid retinoids” (1996)
# Active and inactive are the calls of the source. No cut-off for these calls is given here.
# What was measured:
# [1] = target: T1, Retinoic acid receptor gamma (Homo sapiens) (UniProt P13631); experiment: Transcriptional activation of retinoic acid RAR-gamma receptor; Not active
# T1 sequence (whole entry): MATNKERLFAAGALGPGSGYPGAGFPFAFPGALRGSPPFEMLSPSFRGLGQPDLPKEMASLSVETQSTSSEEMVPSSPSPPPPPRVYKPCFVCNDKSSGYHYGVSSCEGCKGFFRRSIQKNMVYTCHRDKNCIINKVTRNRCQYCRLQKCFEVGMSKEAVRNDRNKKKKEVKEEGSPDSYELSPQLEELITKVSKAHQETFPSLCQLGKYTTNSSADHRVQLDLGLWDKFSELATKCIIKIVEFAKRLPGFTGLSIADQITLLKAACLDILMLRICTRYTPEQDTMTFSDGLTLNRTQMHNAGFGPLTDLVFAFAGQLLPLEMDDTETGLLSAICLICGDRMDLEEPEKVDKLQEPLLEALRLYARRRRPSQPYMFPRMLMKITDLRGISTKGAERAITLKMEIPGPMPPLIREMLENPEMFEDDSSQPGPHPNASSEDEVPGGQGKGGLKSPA
# [2] = organism: Mus musculus; experiment: Concentration that induces 30% utriculi reduction in rhino mouse.; type: functional
# [3] = target: T2, Retinoic acid receptor beta (Homo sapiens) (UniProt P10826); experiment: Transcriptional activation of retinoic acid RAR-beta receptor; Not active
# T2 sequence (whole entry): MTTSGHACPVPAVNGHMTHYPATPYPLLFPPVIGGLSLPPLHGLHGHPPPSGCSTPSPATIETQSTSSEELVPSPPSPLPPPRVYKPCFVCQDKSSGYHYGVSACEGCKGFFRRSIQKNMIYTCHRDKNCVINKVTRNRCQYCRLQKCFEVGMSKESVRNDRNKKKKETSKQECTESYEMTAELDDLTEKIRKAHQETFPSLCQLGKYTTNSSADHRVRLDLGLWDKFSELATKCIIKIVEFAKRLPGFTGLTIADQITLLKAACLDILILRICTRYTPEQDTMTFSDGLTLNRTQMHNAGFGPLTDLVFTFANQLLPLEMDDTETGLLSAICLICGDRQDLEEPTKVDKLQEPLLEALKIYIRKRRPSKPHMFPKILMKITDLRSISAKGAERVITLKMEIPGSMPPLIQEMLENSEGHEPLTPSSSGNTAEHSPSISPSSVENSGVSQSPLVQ
# [4] = target: T3, Retinoic acid receptor alpha (Homo sapiens) (UniProt P10276); experiment: Transcriptional activation of retinoic acid RAR-alpha receptor; Not active
# T3 sequence (whole entry): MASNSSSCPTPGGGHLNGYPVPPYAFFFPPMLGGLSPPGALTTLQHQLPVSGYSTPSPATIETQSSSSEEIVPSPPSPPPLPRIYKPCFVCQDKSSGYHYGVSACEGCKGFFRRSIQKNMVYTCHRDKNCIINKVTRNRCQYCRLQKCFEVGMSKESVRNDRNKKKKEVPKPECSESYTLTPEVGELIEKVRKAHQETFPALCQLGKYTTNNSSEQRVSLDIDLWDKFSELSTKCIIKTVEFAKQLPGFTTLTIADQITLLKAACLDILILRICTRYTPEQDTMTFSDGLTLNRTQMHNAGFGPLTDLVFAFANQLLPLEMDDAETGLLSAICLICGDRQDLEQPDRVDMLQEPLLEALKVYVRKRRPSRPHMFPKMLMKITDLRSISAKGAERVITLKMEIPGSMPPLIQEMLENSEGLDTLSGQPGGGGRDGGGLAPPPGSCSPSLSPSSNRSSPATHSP
EC50 ratio [1],EC50 ratio [3],EC50 ratio [4],Compound,ED30 [2] [mM]
inactive,inactive,inactive,CC1(C)CCC(C)(C)c2cc(C(O)c3ccc(/C=C/C(=O)O)cc3)ccc21 (stereo unspecified),1.74
–,inactive,inactive,CC1(C)CCC(C)(C)c2cc(C(=O)c3cccc(/C=C/C(=O)O)c3)ccc21,–
–,–,–,CC1(C)CCC(C)(C)c2cc(C(O)c3ccc4cc(C(=O)O)ccc4c3)ccc21 (stereo unspecified),0.223
–,–,inactive,C/C(=C\C(=O)O)c1ccc(C(=O)c2ccc3c(c2)C(C)(C)CCC3(C)C)cc1,–
–,–,inactive,Cc1cc(C(=O)c2ccc3c(c2)C(C)(C)CCC3(C)C)ccc1/C=C/C(=O)O,0.184
–,–,–,CC1(C)CCC(C)(C)c2cc(C(=O)c3ccc(/C=C/C(=O)O)cc3)ccc21,0.054
–,–,–,C/C(=C\c1ccc(C(=O)c2ccc3c(c2)C(C)(C)CCC3(C)C)cc1)C(=O)O,0.092
–,–,–,CC1(C)CCC(C)(C)c2cc(C(=O)/C=C/c3ccc(C(=O)O)cc3)ccc21,0.0034
–,–,inactive,CC1(C)CCC(C)(C)c2cc(C(=O)c3ccc(/C=C\C(=O)O)cc3)ccc21,–
–,–,–,CC1(C)CCC(C)(C)c2cc(C(=O)c3ccc4cc(C(=O)O)ccc4c3)ccc21,0.029
–,–,inactive,CC1(C)CCC(C)(C)c2cc(C(=O)c3ccc(C#CC(=O)O)cc3)ccc21,1
–,–,–,CC1(C)CCC(C)(C)c2cc(C(O)/C=C/c3ccc(C(=O)O)cc3)ccc21 (stereo unspecified),0.065
inactive,inactive,inactive,CC1(C)CCC(C)(C)c2cc(C(O)c3cccc(/C=C/C(=O)O)c3)ccc21 (stereo unspecified),–
